Data on two compounds can be found in US20250161238A1, “NMDAR Antagonists Prevent Ageing and Aging-Associated Conditions and Diseases Through Increasing 20S Proteasome Activity” (priority 2022, published 2025).

“Also recorded” adds a separate entry of the source.

Data set [1] concerns LC3. Kind of data set: Autophagy: LC3 turnover and LC3 puncta in HepG2 stably expressing LC3. Format: cell-based, human. The conditions noted are these: HepG2 cell stably expressing LC3. An excerpt:
One of the most experimentally straightforward method to monitor autophagic activity is the detection of microtubule-associated protein light chain 3 (LC3) protein processing. LC3 is the only known protein that is specifically associated with all types of autophagic membranes, including phagophore, autophagosome and autolysosome (a hybrid organelle formed by fusion of the autophagosome and lysosome). LC3 is specifically associated with the autophagosome. Upon the autophagy induction, the cytosolic LC3 (LC3-I) is conjugated to phosphatidylethanolamine (PE) to form lipidated LC3 (LC3-II). LC3-II binds to the expanding isolation membrane and remains bounded to complete autophagosome. Therefore, the amount of LC3-II correlates well with the number of autophagosomes, which is widely used as a marker for the autophagosome. Autophagy is a multi-step process which includes not just the formation of autophagosomes, but most importantly, the flux through the entire system, including the degradation of LC3-II upon fusion with lysosomes. Therefore, the expected result is that the LC3-II protein is degraded for complete autophagy. […] However, total amount of LC3 (LC3-I plus LC3II) was not changed.
The other basic protocol for the outophagy detection is monitoring the number of autophagosomes by visualizin LC3 puncta using flourescence microscopy. […]

In data set [2] the test system is C. elegans. Kind of data set: C. elegans lipid accumulation by Nile Red staining. Format: in vivo. An excerpt:
In the next study, the effects of NMDAR blocker on lipid accumulation and central body fat and thus the fat metabolism in C. elagans was investigated. As mentioned above Nile red is a lipophilic stain which stain intracellular lipid droplets in cell. Therefore, in the presence of memantine and control C. elegans groups on the 19th day, the amount of fat in the living organisms was investigated by Nile Red staining.

Data set [3] deals with C. elegans. The experiment in a line: NADP+ and NADPH+ amount in C. elegans. Format: in vivo. The conditions noted are these: 19th day. An excerpt:
Therefore, the amount of NADP+ and NADPH+ were investigated in C. elagans.

Data set [4] concerns amyloid. Kind of data set: Amyloid staining of mouse tissues. The conditions noted are these: mice at 22 months. Format: in vivo. An excerpt: In the next study, the effects of NMDAR blocker on amyloid accumulation in brain, liver, and kidney of mice with the presence of memantine and control mice groups at 22 months were investigated by amyloid staining.
Whole frozen tissues were sectioned with a microtome and fixed in 4% paraformaldehyde, Tissues were washed in PBS and the individual staining methods used in accordance with the manufacturer's recommendations. Total pixels from fluorescence in the images were quantified using Adobe Photoshop software CS2 (Adobe Systems), and normalized to a nuclear stain.

The subject of data set [5] is human mesenchymal stem cells. Kind of data set: MTT test of mesenchymal stem cells. The conditions noted are these: day 21. Format: cell-based. For orientation: Formazan colour is commonly taken as a measure of viable cells.
The subject of data set [6] is mice with GD symptoms. The conditions noted are these: inverted screen / hanging wire test; cited from earlier work.
For data set [7] the following is noted: humans, 20 mg per day; cited from earlier work.
For data set [8] the following is noted: cited from earlier work.
For data set [9] the following is noted: human subjects; cited from earlier work.

On to `CNC1(c2ccccc2Cl)CCCCC1=O` (stereo not drawn) [ketamin, 2-(2-chlorophenyl)-2-(methylamino)-cyclohexanone], for which the “total amount of LC3 (LC3-I plus LC3II)” value in data set [1] is “not changed”. In data set [1] (western blot), the LC3-II amount entry is recorded as “increase”.

Consider `CC12CC3CC(C)(C1)CC(N)(C3)C2` [memantine, 3,5-dimethyladamantan-1-amine], for which the “lipid accumulation in control group compared to treated” value in data set [2] (19th day) is reported as “more than 2 fold”. In addition, the “lipid accumulation in control group compared to treated” value in data set [2] (20th day) is listed as “more than 2 fold”. Moreover, in data set [3], the “NADP+ compared to C. elegans without treatment” value was 2 folds. In data set [4], the “amount of amyloid in brain tissue” value is given as “most significant difference”; the “amount of amyloid in liver and kidney” value is “statistically significant decrease”. In addition, the “lifespan of human mesenchymal stem cells (MTT test)” value in data set [5] was “increase the lifespan”. In addition, the “muscle strength / motor coordination of GD mice” value in data set [6] is given as “much better; also recorded: improved significantly; also recorded: increase the muscle strength”. Also, the serum levels in data set [7] was 500 to 1000 nM. Also, the “free rat brain concentrations, lower in plasma” value in [8] is listed as 20-30%. Moreover, in data set [9], the “CSF concentrations, lower” value was 30-40%.
